From US9833446B2, “Hedgehog pathway inhibition for cartilage tumor and metachondromatosis treatment” (Rhode Island Hospital, priority 2012, dated 2017) come the findings set out here.

For one assay, the system named is ATDC5 cells. The assay is described as follows: q-PCR of Ihh and Pthrp expression in inhibitor-treated parental ATDC5 cells. Type of assay: cell-based, murine. As to conditions: PD173074 10 nM, UO126 1 μM, n=3, p<0.05. The text has this: (§1) FIG. 4a, Left panel, is a bar graph of qPCR results showing increased Col2α1, Col10α1, Ihh, and Pthrp expression in laser-captured cartilaginous cells from exostoses, compared with normal articular cartilage cells (n=4, *p<0.05, Student t test). FIG. 4a, Right panel, is a series of photomicrographs showing immunostaining of paraffin sections from Perichondrial Groove of Ranvier region of Ctsk-KO and Control mice. Note the decreased number of p-Erk+ cells, but increased Ihh expression in Ctsk-KO, compared with Control, mice. FIG. 4b, Left Panel, is a photograph of an immunoblot showing Shp2 levels in ATDC5 chondroprogenitor cell lines stably expressing shRNAs against murine Ptpn11 (ATDC5-KD1, ATDC5-KD2, respectively) or a scrambled control hairpin. […] FIG. 4c is a bar graph showing that FGFR (PD173074, 10 nM) or MEK (UO126, 1 μM) inhibitor treatment of parental ATDC5 cells enhances Ihh and Pthrp expression, as shown by q-PCR (n=3, *p<0.05, Student t test). […] Images of representative posterior paws (i-iv) and knese (v-vii) taken pre-treatment (i, iii, v, vii) and post-treatment with vehicle (ii, vi) or Smoothened inhibitor (SMOi) (iv, viii) for 4 weeks. Note continued development of exostoses and endochromas in Vehicle-treated mice, and their amelioration in SMOi-treated group (arrows). Also, see FIGS. 7a,b and 8a,b.
Parental ATDC5 cells were purchased from the ATCC and cultured in complete DMEM/F12 medium (1:1) (Invitrogen) as described46. ATDC5 cells stably expressing short hairpin RNAs against murine Shp2 • (oligoA:5′[…] TCTGAATCTT TTTGGAAA (SEQ ID NO:1)); • Oligo B: 5-[…] (SEQ ID NO:2)) or its scrambled control were established by using pSuper(retro)/puro retroviral vector (Oligoengine, Inc) and pEcopac.
(§2) Quantitative RT-PCR. RNA was extracted from cultured cells or cartilage lesions captured by laser dissection by using the RNeasy kit (Qiagen). cDNA was synthesized using iScript™cDNA Synthesis Kit (Bio-Rad) and q-PCR was performed by using the RT2SYBR®Green qPCR kit. All values were normalized to Gapdh levels, and qPCR data are expressed as fold-increases compared with controls.
CCPs are rare, rendering detailed biochemical analyses of these cells unfeasible. We therefore tested the effects of Shp2 depletion in ATDC5 chondroid cells by stably expressing either of two shRNAs directed against murine Ptpn11. As in Ctsk-KO mice (FIG. 4a), Fgf18-evoked Erk activation was decreased, while Ihh and Pthrp levels were increased, in Shp2 deficient-ATDC5 cells, compared with cells expressing an shRNA control (FIG. 4b). Conversely, FGFR (PD173074) or MEK (UO126) inhibitor treatment of randomly growing, parental ATDC5 cells led to enhanced Ihh and Pthrp expression (FIG. 4c).

The test system of the next assay is Ctsk-KO mice. The assay is described as follows: Smoothened inhibitor treatment of Ctsk-KO mice (metachondromatosis model), X-ray, μ-CT and histology. The class given is in vivo. As to conditions: for number of exostoses / size of exostoses: vs vehicle; for cartilage tumor condition / disease process in Shp2 mutant mice: systemic administration.
Source text: as §1
All animals used for these experiments are shown. […] SMOi was administered by oral gavage to Ctsk-KO mice beginning at post-natal week 5 for four weeks, and mice were euthanized at week 9.
Microcomputed Tomography (μ-CT) and x-Ray Analysis. X-ray images of the entire skeleton, knees, metatarsals and phalanges were obtained immediately after euthanasia by using a Faxitron X-ray system (Wheeling, Ill.). After fixation in 4% PFA, μ-CT images of skeletal tissues were scanned with the desktop microcomputer graphic imaging system (μ-CT40, Scanco Medical AG, CH). The number and size of exostoses were measured visually based on x-ray images.
Ihh signaling leads to Pthrp production. […] If so, then blocking or attenuating Ihh signaling might slow and/or prevent MC development. To test this hypothesis, Control (wild type) and Ctsk-KO mice (5/group) were treated with the Smoothened inhibitor PF-04449913 (100 μg/g body weight) or vehicle control (0.5% methylcellulose) by daily gavage, beginning at 5 weeks of age and continuing for the succeeding 4 weeks. The skeletal phenotype was examined by X-ray, μ-CT, and histological analysis at the end of experiment.

The next assay deals with Hedgehog pathway. The assay is described as follows: qPCR of epiphyseal cartilage after oral Smoothened inhibitor in wild type mice. The class given is in vivo. To be noted: oral administration for 1 week, n=3, p<0.05.
Source text: FIG. 8a is a series of charts showing number and size of exostoses in Ctsk-KO mice post-treatment (n=5) with vehicle or Smoothened inhibitor (SMOi). […] FIG. 8b is a bar graph of qPCR results showing that oral administration of the Smoothened inhibitor SMOi to wild type mice for 1 week blunts the expression of Col2α1, Col10α1, Mmp13 and Gli1 in epiphyseal cartilage (n=3, *p<0.05, student t test).
as §2
(In qPCR the cycle at which signal appears reflects the starting amount.)

Setting [1] is: Ctsk-KO mice, 100 μg/g body weight, daily gavage, 4 weeks.
Setting [2] is: Ctsk-KO mice, 100 μg/g body weight, daily gavage, 4 weeks, listed as SMOi.

Entries after “also recorded” stand apart in the source; their conditions may differ.

Regarding `CCN(CC)CCCCNc1ncc2cc(-c3cc(OC)cc(OC)c3)c(NC(=O)NC(C)(C)C)nc2n1` [PD173074], in the assay on ATDC5 cells, the “Ihh expression (q-PCR)” value is given as “enhanced” and the “Pthrp expression (q-PCR)” value is “enhanced”.
Regarding `CN1CC[C@@H](NC(=O)Nc2ccc(C#N)cc2)C[C@@H]1c1nc2ccccc2[nH]1` [PF-04449913], in the assay on Ctsk-KO mice (setting [1]), the “function of multiple joints” value is “improved”, the number of exostoses result is “significantly reduced” and the size of exostoses result is listed as “significantly reduced”. Further, in the assay with Ctsk-KO mice (Ctsk-KO mice, 100 μg/g body weight, daily gavage, 4 weeks from week 5, vs vehicle (0.5% methylcellulose)), the “tumor formation (Faxitron radiographs)” value was “ameliorates tumor formation”. Moreover, in the assay on Ctsk-KO mice (setting [2]), the number of exostoses entry is reported as “reduction of number; also recorded: decrease in average number of exostoses”; the size of exostoses result is “reduction of number and size”. The “cartilage tumor condition / disease process in Shp2 mutant mice” value in the assay with Ctsk-KO mice was “reduces the cartilage tumor condition”. For the same compound, in the assay on Ctsk-KO mice (listed as PF-0444993), the “cartilage tumor condition / disease process in Shp2 mutant mice” value is recorded as “can stop or slow down the disease process”. In the assay on Hedgehog pathway, the “expression of Col2α1 in epiphyseal cartilage (qPCR)” value is reported as “blunts”, the “expression of Col10α1 in epiphyseal cartilage (qPCR)” value is “blunts”, the “expression of Gli1 in epiphyseal cartilage (qPCR)” value is “blunts” and the “expression of Mmp13 in epiphyseal cartilage (qPCR)” value is reported as “blunts”.
For `N#CC(=C(/N)Sc1ccccc1N)/C(C#N)=C(/N)Sc1ccccc1N` [UO126], in the assay on ATDC5 cells, the “Ihh expression (q-PCR)” value is listed as “enhanced” and the “Pthrp expression (q-PCR)” value is “enhanced”.
